# According to patent US11504434B2, “Compositions and methods for targeted delivery of therapeutic and/or diagnostic agents” (THE PENN STATE RESEARCH FOUNDATION, priority 2016, dated 2022):
# Key:
# 1205Lu cells = assay: CCK-8 cell viability, 1205Lu; format: cell-based, human
# Method: (§1) Pharmacological Studies. First, free PLX4032 toxicity and selectivity were confirmed by adding PLX4032 solutions at different concentrations into 96 well plates with THP-1, 1205Lu and WM35 cells separately (cell seeding density=5,000 cells/well). After 24 hrs incubation, the cells were washed with PBS twice and supplemented with 10 μl CCK-8 in 100 μl RPM-1640 medium in each well. After 2 hrs incubation, the absorbance at 450 nm of each well was measured by a micro-plate reader (TECAN infinite M200 PRO) and converted to the cell viability by normalized to control (tissue culture plates). Next, MTP-BPLP-PLA nanoparticles with and without PLX4032 loaded were dispersed in RPMI-1640 medium in various concentrations, followed by incubation with THP-1, 1205lu and WM35 cells (2,000 cells/well) separately in same conditions for 7 days. At last, MTP-BPLP-PLA-PLX4032 loaded THP-1 cells and pristine THP-1 cells were seeded with 1205lu or WM35 cells (2,000 cells/well) together with different ratios for 7 days, respectively. The cell viabilities were tested by CCK-8 assays as well.
# WM35 cells = assay: CCK-8 cell viability, WM35; format: cell-based, human
# Method: as §1
# THP-1 cells = assay: CCK-8 cell viability, THP-1; format: cell-based; conditions: free drug, up to 100 μg/ml, 24 hrs
# Method: as §1
# [1] = PLX4032 concentration higher than 5 μg/ml, 24 hrs
compound,measurement,setting,value
CCCS(=O)(=O)Nc1ccc(F)c(C(=O)c2c[nH]c3ncc(-c4ccc(Cl)cc4)cc23)c1F [PLX4032],free PLX4032 toxicity to 1205Lu,"1205Lu cells; 50 ng/ml, 24 hrs incubation",selectively killed
same,kill of melanomas (1205Lu),1205Lu cells; [1],~100%
same,free PLX4032 toxicity to WM35,"WM35 cells; 50 ng/ml, 24 hrs incubation",selectively killed
same,kill of melanomas (WM35),WM35 cells; [1],~100%
same,THP-1 cell viability reduction,THP-1 cells,no significant viability reduction
